In US10988459B2 (priority 2015, dated 2021):

Target: human RIP1 kinase domain (2-375) (Homo sapiens (Human), UniProt Q13546)
Experiment: biochemical
Format: biochemical
Details: tight-binding apparent inhibition constant; human RIP1 kinase domain (2-375) 50 nM, 50 uM ATP, 2 hours; read-out: Ki
Outline: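 50 nM purified kinase domain from baculovirus-infected insect cells, incubated 2 h with compound in 50 mM Hepes pH 7.5, 30 mM MgCl2, 1 mM DTT, 50 uM ATP, 0.002% Brij-35, 0.5% DMSO. ADP formation read by Transcreener FP at 633 nm excitation. Ki^app fitted with the Morrison tight-binding equation.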

Sequence of human RIP1 kinase domain (2-375) (Q13546 2-375): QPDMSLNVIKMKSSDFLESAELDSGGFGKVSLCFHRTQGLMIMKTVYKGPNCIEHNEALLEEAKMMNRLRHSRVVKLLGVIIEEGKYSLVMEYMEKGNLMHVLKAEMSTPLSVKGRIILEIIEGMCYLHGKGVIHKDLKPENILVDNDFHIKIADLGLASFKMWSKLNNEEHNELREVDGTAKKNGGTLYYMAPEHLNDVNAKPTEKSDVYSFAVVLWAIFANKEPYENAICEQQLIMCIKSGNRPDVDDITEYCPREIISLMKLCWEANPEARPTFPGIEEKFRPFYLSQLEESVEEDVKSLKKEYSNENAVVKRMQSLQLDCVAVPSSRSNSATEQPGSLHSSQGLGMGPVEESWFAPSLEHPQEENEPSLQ

Row | Ki [nM] | SMILES
1 | 6.9 | Cc1cc2n(n1)CC[C@H](NC(=O)c1ncn(Cc3cccc(Cl)c3)n1)C(=O)N2C [Example 521, 1-[(3-chlorophenyl)methyl]-N-(6S)-2,4-dimethyl-5-oxo-7,8-dihydro-6H-pyrazolo[1,5-a][1,3]diazepin-6-yl-1,2,4-triazole-3-carboxamide]
2 | 3.5 | CN1C(=O)[C@@H](NC(=O)c2ncn(Cc3ccccc3Cl)n2)CCn2nc(C3CC3)cc21 [Example 522]
3 | 13 | CN1C(=O)[C@@H](NC(=O)c2ncn(Cc3cccc(F)c3F)n2)CCn2nc(C(F)(F)F)cc21 [Example 523, 1-[(2,3-difluorophenyl)methyl]-N-(6S)-4-methyl-5-oxo-2-(trifluoromethyl)-7,8-dihydro-6H-pyrazolo[1,5-a][1,3]diazepin-6-yl-1,2,4-triazole-3-carboxamide]
4 | 72 | CN1C(=O)[C@@H](NC(=O)c2nnc(Cc3cccc(F)c3F)[nH]2)CCn2nc(C(F)(F)F)cc21 [Example 524]
5 | 46 | CN1C(=O)[C@@H](NC(=O)c2ncn(Cc3ccc(F)cc3)n2)CCn2nc(C(F)(F)F)cc21 [Example 525]
6 | 20 | CN1C(=O)[C@@H](NC(=O)c2ncn(Cc3ccccc3F)n2)CCn2nc(C(F)(F)F)cc21 [Example 526]
7 | 23 | CN1C(=O)[C@@H](NC(=O)c2ncn(Cc3cccc(F)c3)n2)CCn2nc(C(F)(F)F)cc21 [Example 527]
8 | 4.8 | CN1C(=O)[C@@H](NC(=O)c2ncn(Cc3ccccc3Cl)n2)CCn2nc(C(F)(F)F)cc21 [Example 528]
9 | 28 | CN1C(=O)[C@@H](NC(=O)c2ncn(Cc3ccc(F)cc3F)n2)CCn2nc(C(F)(F)F)cc21 [Example 529]

The next lines start with the compound.

Row | SMILES | Ki [nM]
10 | CN1C(=O)[C@@H](NC(=O)c2nnc(Cc3cccc(F)c3F)[nH]2)CCn2nc(C3CC3)cc21 [Example 514, 5-[(2,3-difluorophenyl)methyl]-N-(6 S)-2-cyclopropyl-4-methyl-5-oxo-7,8-dihydro-6H-pyrazolo[1,5-a][1,3]diazepin-6-yl-4H-1,2,4-triazole-3-carboxamide] | 17
11 | CN1C(=O)[C@@H](NC(=O)c2nc3n(n2)CCOC3c2ccccc2)COc2ccccc21 (stereo partly drawn) [Example 515, 8-phenyl-N-[(3S)-5-methyl-4-oxo-2,3-dihydro-1,5-benzoxazepin-3-yl]-6,8-dihydro-5H-[1,2,4]triazolo[5,1-c][1,4]oxazine-2-carboxamide] | 29
12 | CN1C(=O)[C@@H](NC(=O)c2nc3n(n2)CCO[C@H]3c2ccccc2)COc2ccccc21 [Example 516, (8S)-8-phenyl-N-[(3S)-5-methyl-4-oxo-2,3-dihydro-1,5-benzoxazepin-3-yl]-6,8-dihydro-5H-[1,2,4]triazolo[5,1-c][1,4]oxazine-2-carboxamide] | 18
13 | CN1C(=O)[C@@H](NC(=O)c2nc3n(n2)CCO[C@@H]3c2ccccc2)COc2ccccc21 [Example 517, (8R)-8-phenyl-N-[(3S)-5-methyl-4-oxo-2,3-dihydro-1,5-benzoxazepin-3-yl]-6,8-dihydro-5H-[1,2,4]triazolo[5,1-c][1,4]oxazine-2-carboxamide] | 660
14 | Cc1cc2n(n1)CC[C@H](NC(=O)c1ncn(Cc3ccccc3F)n1)C(=O)N2C [Example 518, 1-[(2-fluorophenyl)methyl]-N-(6S)-2,4-dimethyl-5-oxo-7,8-dihydro-6H-pyrazolo[1,5-a][1,3]diazepin-6-yl-1,2,4-triazole-3-carboxamide] | 7.5
15 | Cc1cc2n(n1)CC[C@H](NC(=O)c1ncn(Cc3cccc(F)c3)n1)C(=O)N2C [Example 519, 1-[(3-fluorophenyl)methyl]-N-(6S)-2,4-dimethyl-5-oxo-7,8-dihydro-6H-pyrazolo[1,5-a][1,3]diazepin-6-yl-1,2,4-triazole-3-carboxamide] | 11
16 | Cc1cc2n(n1)CC[C@H](NC(=O)c1ncn(Cc3ccccc3Cl)n1)C(=O)N2C [Example 520, 1-[(2-chlorophenyl)methyl]-N-(6S)-2,4-dimethyl-5-oxo-7,8-dihydro-6H-pyrazolo[1,5-a][1,3]diazepin-6-yl-1,2,4-triazole-3-carboxamide] | 6
